Experimental data: publication PMC6133161, “Thiazoles with cyclopropyl fragment as antifungal, anticonvulsant, and anti-Toxoplasma gondii agents: synthesis, toxicity evaluation, and molecular docking study” (Medicinal Chemistry Research, 2018)
≈ marks a conversion by molar mass, not a printed value. Where two headings read alike, the source gives them in different places.

Legend:
C. lusitaniae = experiment: Broth microdilution MIC/MFC, clinical isolate; format: cell-based; conditions: C. lusitaniae clinical strain
Text: (§1) In the study of antifungal activity of the compounds 3a–3j, 15 clinical strains of different species of yeasts from Candida species, namely C. albicans, C. dubliniensis C. famata, C. inconspicua, C. krusei, C. tropicalis, C. glabrata, C. lambica, C. kefyr, C. lusitaniae, C. parapsilosis, C. guilliermondii, C. lusitaniae, C. pulcherrima and C. sake were also used. These fungi were isolated by the author (from Department of Pharmaceutical Microbiology of Medical University in Lublin, Poland) from different clinical materials, e.g., from upper respiratory tract of hospitalized patients including cancer patients (i.e., with non-small cell lung cancer or hematological malignancies). Some patients were after pre-operative or post-operative chemotherapy (treated with etoposide or cis-platin given in doses according to the standard procedures), patients with chronic hepatitis C (undergoing peginterferon and ribavirin therapy or without antiviral therapy), patients with diabetes, elderly people, aged of 65 years old or older, staying in close population, such as a care centre and people staying outside the home care. The Ethical Committee of the Medical University of Lublin approved the study protocol (No. KE-0254/75/2011). The isolates were identified by standard diagnostic methods—biochemical microtest, e.g., API 20C AUX, ID 32C, API Candida (bioMérieux) on the basis of assimilation of various substrates. All the used microbial cultures were first subcultured on nutrient agar or Sabouraud agar for bacteria and fungi, respectively. The RPMI 1640 with MOPS (for fungi) were inoculated with the suspensions of fungal species. Microbial suspensions were prepared in sterile saline (0.85% NaCl) with an optical density of 0.5 McFarland standard scale (Wiegand et al. [2008]). Samples containing examined compounds were dissolved in dimethyl sulfoxide (DMSO). Furthermore, fungal suspensions were put onto Petri dishes with solid media containing 2 mg/ml of the tested compounds followed incubation under appropriate conditions. The inhibition of microbial growth was judged by comparison with a control culture prepared without any sample tested. Nystatin (Sigma) was used as a reference antifungal compound. Subsequently MIC minimal inhibitory concentration (MIC) of the compounds was examined by the microdilution broth method, using their two-fold dilutions in RPMI 1640 broth with MOPS prepared in 96-well polystyrene plates. Final concentrations of the compounds ranged from 1000 to 0.0038 µg/ml. Microbial suspensions were prepared in sterile saline with an optical density of 0.5 McFarland standard. Next fungal suspension was added per each well containing broth and various concentrations of the examined compounds. After incubation, the MIC was assessed spectrophotometric as the lowest concentration of the samples showing complete fungal growth inhibition. Appropriate DMSO, growth and sterile controls were carried out. The medium with no tested substances was used as a control (Wiegand et al. [2008]). The minimal fungicidal concentration (MFC) are defined as the lowest concentration of the compounds that is required to kill a particular fungal species. MFC was determined by removing the culture using for MIC determinations from each well and spotting onto appropriate agar medium. The plates were incubated. The lowest compounds concentration with no visible growth observed was assessed as a fungicidal concentration. All the experiments were repeated three times and representative data are presented.
(§2) The MFC/MIC ratios were calculated in order to determine fungicidal (MFC/MIC ≤ 4) or fungistatic (MFC/MIC > 4) effect of the tested compounds (O’Donnell et al. [2010]).

C. pulcherrima = experiment: Broth microdilution MIC/MFC, clinical isolate; format: cell-based; conditions: C. pulcherrima clinical strain
Text: as §1, §2

C. parapsilosis = experiment: Broth microdilution MIC/MFC, clinical isolate; format: cell-based; conditions: C. parapsilosis clinical strain
Text: as §1, §2

C. sake = experiment: Broth microdilution MIC/MFC, clinical isolate; format: cell-based; conditions: C. sake clinical strain
Text: as §1, §2

[1] = tested on: Toxoplasma gondii RH strain; experiment: [3H]-uracil incorporation assay in VERO host cells; conditions: Toxoplasma gondii, Vero; for activity at 0.98 µg/mL / activity at 1.95 µg/mL / activity at 3.91 µg/mL / activity at 7.81 µg/mL / activity at 15.63 µg/mL / activity at 20 µg/mL / activity at 25 µg/mL / activity at 31.25 µg/mL: read-out: Proliferation of Toxoplasma gondii RH strain ± SD; for IC50: read-out: IC50 anti-Tg
[2] = tested on: PTZ-induced clonic seizures; experiment: PTZ seizure test; format: in vivo, mouse; conditions: mice, ip, 60 min before PTZ 100 mg/kg sc
Method: For in vivo tests that assessed anticonvulsant properties of the test compounds 3a–3j adult male Albino Swiss (CD-1) mice weighing between 18 and 22 g were used. The animals were housed in groups of ten mice per cage at room temperature of 22 ± 2 °C, under light/dark (12:12) cycle. The animals had free access to food and tap water before the experiments. The ambient temperature of the experimental room and humidity (50 ± 10%) were kept consistent throughout all the tests. For behavioral experiments the animals were selected randomly. Each experimental group consisted of 4–8 animals/dose. The experiments were performed between 9 AM and 2 PM. Immediately after the in vivo assay the animals were euthanized by cervical dislocation. All procedures were approved by the Local Ethics Committee of the Jagiellonian University in Krakow (34/2018, 1.02.2018)) and the treatment of animals was in full accordance with ethical standards laid down in respective Polish and EU regulations (Directive No. 86/609/EEC). For in vivo tests the compounds 3a–3j were prepared in 1% Tween 80 solution (POCH, Poland) and they were administered by the intraperitoneal route. Control mice received 1% Tween 80. Pentylenetetrazole (PTZ), pilocarpine hydrochloride and scopolamine butylbromide were provided by Sigma Aldrich (Poland). For the tests they were prepared in 0.9% saline (Polfa Kutno, Poland). PTZ and pilocarpine were administered 60 min after the test compound or vehicle. To assess anticonvulsant properties of the test compounds anticonvulsant screening was conducted. Four assays were used: PTZ, maximal electroshock seizure (MES), 6-Hz and pilocarpine tests. In these assays the dose of 100 mg/kg was chosen as a starting dose. If it turned out to be effective, a lower dose (30 mg/kg) was also tested. The test was performed according to a method previously described (Sałat et al. [2005]). Clonic convulsions were induced by the subcutaneous (sc) administration of PTZ at a dose of 100 mg/kg. After PTZ injection, each mouse was immediately placed in a transparent Plexiglas cage (30 × 20 × 15 cm) and was observed during the next 30 min for the occurrence of clonic seizures. Clonic seizures were defined as clonus of the whole body lasting more than 3 s, with an accompanying loss of righting reflex. Latency time to first clonus and the number of seizure episodes were noted and compared between vehicle-treated and drug-treated groups.

[3] = Clavispora lusitaniae, read-out: MFC
[4] = Clavispora lusitaniae, read-out: MIC
[5] = Lodderomyces parapsilosis, read-out: MFC
[6] = Lodderomyces parapsilosis, read-out: MIC
[7] = Fermentozyma sake, read-out: MFC
[8] = Fermentozyma sake, read-out: MIC

Row | SMILES | MFC (C. lusitaniae; [3]) | MIC (C. lusitaniae; [4]) | MFC (C. pulcherrima; read-out: MFC) | MIC (C. pulcherrima; read-out: MIC) | MFC (C. parapsilosis; [5]) | MIC (C. parapsilosis; [6]) | MFC (C. sake; [7]) | MIC (C. sake; [8]) | activity at 0.98 µg/mL [1] | activity at 1.95 µg/mL [1] | activity at 3.91 µg/mL [1] | activity at 7.81 µg/mL [1] | activity at 15.63 µg/mL [1] | activity at 20 µg/mL [1] | IC50 [1] | activity at 25 µg/mL [1] | activity at 31.25 µg/mL [1] | melting point | also measured
1 | Fc1ccc(-c2csc(N/N=C/C3CC3)n2)c(F)c1 [Compound 3g, (E)-2-(2-(Cyclopropylmethylene)hydrazinyl)-4-(2,4-difluorophenyl)thiazole] | 1.95 µg/mL (≈ 6.98 µM) | 0.48 µg/mL (≈ 1.72 µM) | > 1000 µg/mL | 250 µg/mL (≈ 895 µM) | 1.95 µg/mL (≈ 6.98 µM) | 0.98 µg/mL (≈ 3.51 µM) | 3.91 µg/mL (≈ 14 µM) | 0.48 µg/mL (≈ 1.72 µM) | 105 ± 9.98% | 91.8 ± 1.12% | 81.4 ± 1.6% | 78.6 ± 4.6% | 58.1 ± 2.94% | 60.9 ± 3.81% |  |  |  |  | 
2 | N#Cc1ccc(-c2csc(N/N=C/C3CC3)n2)cc1 [Compound 3h, (E)-4-(2-(2-(Cyclopropylmethylene)hydrazinyl)thiazol-4-yl)benzonitrile] | 0.98 µg/mL (≈ 3.65 µM) | 0.24 µg/mL (≈ 0.894 µM) | > 1000 µg/mL | 62.5 µg/mL (≈ 233 µM) | 31.2 µg/mL (≈ 116 µM) | 1.95 µg/mL (≈ 7.27 µM) | 125 µg/mL (≈ 466 µM) | 0.98 µg/mL (≈ 3.65 µM) | 86.1% | 83.3 ± 3.9% | 79.6 ± 1.15% | 75.5 ± 4.89% | 65 ± 3.28% | 56.6 ± 1% | 30.1 µg/mL (≈ 112 µM) | 53.9 ± 6.64% | 43.81 ± 0.06% |  | 
3 | Brc1ccc(-c2csc(N/N=C/C3CC3)n2)cc1 [Compound 3b, (E)-4-(4-Bromophenyl)-2-(2-(cyclopropylmethylene)hydrazinyl)thiazole] | 1.95 µg/mL (≈ 6.05 µM) | 0.98 µg/mL (≈ 3.04 µM) |  |  | 0.12 µg/mL (≈ 0.372 µM) | 0.12 µg/mL (≈ 0.372 µM) | 0.24 µg/mL (≈ 0.745 µM) | 0.06 µg/mL (≈ 0.186 µM) | 85.8 ± 10.6% | 99.3 ± 6.08% | 107 ± 10.2% | 111 ± 10.1% |  |  |  |  |  | 165 to 167 °C | 
4 | FC(F)(F)c1ccc(-c2csc(N/N=C/C3CC3)n2)cc1 [Compound 3e, (E)-2-(2-(Cyclopropylmethylene)hydrazinyl)-4-(4-(trifluoromethyl)phenyl)thiazole] |  |  |  |  |  |  |  |  | 94.4 ± 6.92% | 100 ± 2.25% | 110 ± 4.37% |  |  |  |  |  |  | 132 to 134 °C | anticonvulsant activity in PTZ model [2]: not effective
5 | Clc1ccc(-c2csc(N/N=C/C3CC3)n2)cc1 [Compound 3c, (E)-4-(4-Chlorophenyl)-2-(2-(cyclopropylmethylene)hydrazinyl)thiazole] | 0.12 µg/mL (≈ 0.432 µM) | 0.12 µg/mL (≈ 0.432 µM) | > 1000 µg/mL | 125 µg/mL (≈ 450 µM) | 0.12 µg/mL (≈ 0.432 µM) | 0.03 µg/mL (≈ 0.108 µM) | 0.98 µg/mL (≈ 3.53 µM) | 0.12 µg/mL (≈ 0.432 µM) | 106.78 ± 0.02% | 108 ± 4.34% | 114 ± 6.65% |  |  |  |  |  |  | 162 to 163 °C | anticonvulsant activity in PTZ model [2]: not effective
6 | C[C@@H]1[C@H](O)[C@@H](C)/C=C/C=C/CC/C=C/C=C/C=C/C=C/C(O[C@H]2O[C@H](C)[C@@H](O)[C@H](N)[C@@H]2O)CC2O[C@](O)(CC(O)C(O)CCC(O)CC(O)CC(O)CC(=O)O[C@H]1C)CC(O)C2C(=O)O (stereo partly drawn) [Nystatin, reference compound] |  |  |  |  |  |  |  |  |  |  |  |  |  |  |  |  |  |  | MFC (C. lusitaniae): 0.24 µg/mL (≈ 0.259 µM); MFC/MIC (C. lusitaniae): 2; MIC (C. lusitaniae): 0.12 µg/mL (≈ 0.13 µM); MFC (C. pulcherrima): 0.24 µg/mL (≈ 0.259 µM); MFC/MIC (C. pulcherrima): 2; MIC (C. pulcherrima): 0.12 µg/mL (≈ 0.13 µM); MFC (C. parapsilosis): 0.48 µg/mL (≈ 0.518 µM); MFC/MIC (C. parapsilosis): 4; MIC (C. parapsilosis): 0.12 µg/mL (≈ 0.13 µM); MFC (C. sake): 0.12 µg/mL (≈ 0.13 µM); MFC/MIC (C. sake): 2; MIC (C. sake): 0.06 µg/mL (≈ 0.0648 µM)
7 | Cc1ccc(-c2csc(N/N=C/C3CC3)n2)cc1 [Compound 3d, (E)-2-(2-(Cyclopropylmethylene)hydrazinyl)-4-p-tolylthiazole] | 0.48 µg/mL (≈ 1.87 µM) | 0.12 µg/mL (≈ 0.466 µM) | > 1000 µg/mL | 15.6 µg/mL (≈ 60.7 µM) | 0.24 µg/mL (≈ 0.933 µM) | 0.06 µg/mL (≈ 0.233 µM) | 0.48 µg/mL (≈ 1.87 µM) | 0.12 µg/mL (≈ 0.466 µM) | 88.7 ± 2.63% | 100 ± 4.54% | 93.4 ± 5.18% | 90.4 ± 3.29% | 84.41 ± 0.08% |  |  |  |  |  | 
8 | Fc1ccc(-c2csc(N/N=C/C3CC3)n2)cc1 [Compound 3a, (E)-2-(2-(Cyclopropylmethylene)hydrazinyl)-4-(4-fluorophenyl)thiazole] | 3.91 µg/mL (≈ 15 µM) | 0.98 µg/mL (≈ 3.75 µM) |  |  | 7.81 µg/mL (≈ 29.9 µM) | 3.91 µg/mL (≈ 15 µM) | 15.6 µg/mL (≈ 59.8 µM) | 3.91 µg/mL (≈ 15 µM) | 95.4 ± 2.41% | 97.9 ± 7.49% | 96.16 ± 0.61% | 84.89 ± 0.78% | 49.2 ± 3.59% | 45.6 ± 5.64% | 18.1 µg/mL (≈ 69.2 µM) | 42.2 ± 0.91% | 28.2 ± 5.7% |  | 
9 | O=[N+]([O-])c1ccc(-c2csc(N/N=C/C3CC3)n2)cc1 [Compound 3j, (E)-2-(2-(Cyclopropylmethylene)hydrazinyl)-4-(4-nitrophenyl)thiazole] | 0.98 µg/mL (≈ 3.4 µM) | 0.48 µg/mL (≈ 1.66 µM) | > 1000 µg/mL | 7.81 µg/mL (≈ 27.1 µM) | 1.95 µg/mL (≈ 6.76 µM) | 0.48 µg/mL (≈ 1.66 µM) | 0.98 µg/mL (≈ 3.4 µM) | 0.24 µg/mL (≈ 0.832 µM) | 91 ± 2.47% | 94.44 ± 0.34% | 97.1 ± 4.63% | 96.7 ± 3.29% | 60 ± 7.86% | 58.8 ± 1.67% | 21.8 µg/mL (≈ 75.5 µM) | 40.3 ± 1.53% | 35.1 ± 424% |  | 
